# Source: patent US10172957B2, “Acid-labile lipophilic prodrugs of cancer chemotherapeutic agents” (priority 2011, dated 2019)
# Read-outs that look alike come from different tables or passages of the source.
# Legend:
# [1] = system: SK-N-AS cells (MDR− Neuroblastoma); assay: MTS proliferation assay using SK-N-AS cells; assay type: cell-based; conditions: Homo sapiens, read-out: IC50 in SK-N-AS
# Description: SK-N-AS cells were plated in appropriate growth medium at 5×10^3 per well in 100 μL in 96 well tissue culture plates, Falcon, one plate for each drug to be tested. Column 1 was blank; it contained medium, but no cells. The plates were incubated overnight at 37° C. in 5% CO2 to allow attachment.
# Drug diluted in culture media was added to the cells at a concentration of 0.005 nM to 10 μM, in quadruplicate. After 48-72 hours of drug exposure, the MTS agent was added to all wells and incubated 1-6 hrs (37° C., 5% CO2), depending on cell type, as per CellTiter 96® AQueous Non-Radioactive Cell Proliferation Assay (MTS), Promega. Plates were processed using a Bio-Tek Synergy HT Multi-detection microtiter plate reader at 490 nanometer wavelength and data were processed with KC4V.3 software. Data plots of drug concentration vs. absorbance were plotted and the concentration resulting in 50% inhibition (IC50) was extrapolated for each of the tested compounds.
# As summarized in Table 1, the IC50 value for each tested compound in the SK-N-AS cell line was determined. The clinical comparator drug, paclitaxel, was included in the experiment to allow comparison of the results of the candidate compounds to a clinically relevant standard in the taxane class.
# [2] = system: MES-SA uterine sarcoma line; assay: MTT-based cytotoxicity assay, MES-SA; assay type: cell-based, human; conditions: read-out: IC50 MESSA (Hs)
# Source text: (§1) A second evaluation of the cytotoxicity of the acid labile, lipophilic molecular conjugates was undertaken.
# (§2) These lines included a uterine sarcoma line, MES-SA, and its doxorubicin-resistant subline, MES-SA/Dx5. See W. G. Harker, F. R MacKintosh, and B. I. Sikic. Development and characterization of a human sarcoma cell line, MES-SA, sensitive to multiple drugs. Cancer Research 43: 4943-4950 (1983); W. G. Harker and B. I. Sikic. Multidrug (pleiotropic) resistance in doxorubicin-selected variants of the human sarcoma cell line MES-SA. Cancer Research 45: 4091 4096 (1985).
# (§3) MES-SA/Dx5 cells express high levels of ABCB1 (MDR1) mRNA and its gene product, the P-glycoprotein. MES-SA and MES-SA/Dx5 were purchased from the American Type Culture Collection (ATCC, Manassas, Va.).
# CEM/VLB100 cells (MDR+) = assay: cells; assay type: cell-based, human; conditions: for Degree of resistance (CEM/VLB100): IC50 of the resistant line divided by IC50 of sensitive CEM cells
# Source text: as §1, §2
# (§4) The second set of cells tested, CCRF-CEM or simply CEM, were derived from the blood of a patient with acute lymphoblastic leukemia. G. E. Foley, H. Lazarus, S. Farber, B. G. Uzman, B. A. Boone, and R E. McCarthy. Continuous culture of human lymphoblasts from peripheral blood of a child with acute leukemia. Cancer 18: 522-529 (1965). The subline CEM/VLB100 was developed to be resistant to up to vinblastine at 100 ng/ml. W. T. Beck, T. J. Mueller, and L. R. Tanzer. Altered surface membrane glycoproteins in Vinca alkaloid-resistant human leukemic lymphoblasts. Cancer Research 39: 2070-2076 (1979). Drug resistance is achieved by overexpression of the MDR1 gene. Resistance in the CEM subline designated CEM/VM-1-5, however, is “atypical.” M. K. Danks, J. C. Yalowich, and W. T. Beck. Atypical multiple drug resistance in a human leukemic cell line selected for resistance to teniposide (VM-26). Cancer Research 47: 1297-1301 (1987). The classes of drugs included in the “classic” multiple drug resistance phenotype are Vinca alkaloids, anthracyclines, epipodophyllotoxins and antibiotics. However, CEM/VM-1-5 cells retain sensitivity to the Vinca alkaloids despite resistance and cross-resistance to etoposide, anthracyclines and mitoxantrone. Danks, M. K.; Schmidt, C. A.; Cirtain, M. C.; Suttle, D. P.; Beck, W. T., Altered catalytic activity of and DNA cleavage by DNA topoisomerase II from human leukemic cells selected for resistance to VM-26. Biochemistry 1988, 27, 8861-8869. Resistance in CEM/VM-1-5 cells is effected by over expression of the […]. CEM, CEM/VLB100 and CEM/VM-1-5 cells were obtained from Dr. WT Beck, University of Illinois at Chicago.
# CEM/VM-1-5 cells (MDR+) = assay: cells; assay type: cell-based, human; conditions: for Degree of resistance (CEM/VM-1-5): IC50 of the resistant line divided by IC50 of sensitive CEM cells
# Source text: A second evaluation of the cytotoxicity of the acid labile, lipophilic molecular conjugates was undertaken. […]
# as §4
# CCRF-CEM (CEM) cells = assay: MTT-based cytotoxicity assay, CEM; assay type: cell-based, human
# Source text: as §1, §2, §4
# [3] = system: MES-SA/Dx5 doxorubicin-resistant subline (MDR+); assay: cells; assay type: cell-based, human; conditions: for Degree of resistance (MESSA/Dx5): IC50 of the resistant line divided by IC50 of sensitive MES-SA cells
# Source text: as §1, §2, §3
# [4] = SK-N-AS (MDR− Neuroblastoma), MTS, 48-72 hours drug exposure
# [5] = Homo sapiens, read-out: IC50 CEM/VM-1-5 (MDR + HTL), CEM/VM-1-5, MTT
molecule,measurement,setting,value
CCCCCCCCCCCCCCCCCCOC(CBr)O[C@@H]1C(=O)C=C(C)[C@@H]2C[C@H]3OC(=O)C(OC(=O)CC(O)(C(C)C)C(C)C)C4[C@@H](C)[C@@H](O)[C@]5(O)OC[C@@]43C5[C@@]12C (stereo partly drawn) [ART 472],IC50,[1]; [4],1.19 ± 0.5 nM
CCOC(CBr)O[C@@H]1C(=O)C=C(C)[C@@H]2C[C@H]3OC(=O)C(OC(=O)CC(O)(C(C)C)C(C)C)C4[C@@H](C)[C@@H](O)[C@]5(O)OC[C@@]43C5[C@@]12C (stereo partly drawn) [ART 470],IC50,[1]; [4],349 ± 15 nM
doxorubicin [reference compound],IC50,"[2]; MES-SA human sarcoma, MTT",2 nM
same,IC50,"CEM/VLB100 cells (MDR+); CEM/VLB100, MTT, read-out: IC50 CEM/VLB100 (MDR + HTL)",2100 nM
same,Degree of resistance (CEM/VLB100),CEM/VLB100 cells (MDR+),150
same,IC50,"CEM/VM-1-5 cells (MDR+); CEM/VM-1-5, MTT, read-out: IC50 CEM/VM-1-5 (MDR + HTL)",3060 nM
same,Degree of resistance (CEM/VM-1-5),CEM/VM-1-5 cells (MDR+),219
same,IC50,"CCRF-CEM (CEM) cells; CEM human T-lymphoblastoid, MTT, read-out: IC50 CEM (HTL)",14 nM
same,Degree of resistance (MESSA/Dx5),[3],49
same,IC50,"[3]; MES-SA/Dx5, MTT, read-out: IC50 MESSA/Dx5 (MDR + Hs)",97 nM
CCCCCCCCCCC1(C)OCC(COC(=O)O[C@@H]2C(=O)C=C(C)[C@@H]3C[C@H]4OC(=O)[C@H](OC(=O)CC(O)(C(C)C)C(C)C)[C@H]5[C@@H](C)[C@@H](O)[C@]6(O)OC[C@@]54[C@H]6[C@@]23C)O1 (stereo partly drawn) [ART 332],IC50,[1]; [4],1.1 ± 0.5 nM
CC/C=C\C/C=C\C/C=C\C/C=C\C/C=C\C/C=C\CCCOC(=O)O[C@@H]1C(=O)C=C(C)[C@@H]2C[C@H]3OC(=O)C(OC(=O)CC(O)(C(C)C)C(C)C)C4[C@@H](C)[C@@H](O)[C@]5(O)OC[C@@]43C5[C@@]12C (stereo partly drawn) [ART 449],IC50,[1]; [4],4 ± 0.5 nM
CC1=CC(=O)[C@@H](OC(CBr)OC(C)(C)C)[C@]2(C)C3[C@]45CO[C@@]3(O)[C@H](O)[C@H](C)C4C(OC(=O)CC(O)(C(C)C)C(C)C)C(=O)O[C@@H]5C[C@@H]12 (stereo partly drawn) [ART 471],IC50,[1]; [4],262 ± 12 nM
"CC(=O)O[C@H]1C(=O)[C@@]2(C)[C@H]([C@H](OC(=O)c3ccccc3)[C@]3(O)C[C@H](OC(=O)[C@H](O)[C@@H](NC(=O)c4ccccc4)c4ccccc4)C(C)=C1C3(C)C)[C@]1(OC(C)=O)CO[C@@H]1C[C@@H]2O [Paclitaxel, paclitaxel, reference compound]",IC50,"[2]; Homo sapiens, MES-SA",9 ± 7 nM
same,IC50,CEM/VM-1-5 cells (MDR+); [5],< 11 nM
same,Degree of resistance (CEM/VM-1-5),CEM/VM-1-5 cells (MDR+),4
same,IC50,[1]; SK-N-AS,0.05 ± 0.01 nM
same,Degree of resistance (MESSA/Dx5),[3],3105 ± 2416
"CC[C@]1(O)C[C@@H]2CN(CCc3c([nH]c4ccccc34)[C@@](C(=O)OC)(c3cc4c(cc3OC)N(C)[C@H]3[C@@](O)(C(=O)OC)[C@H](OC(C)=O)[C@]5(CC)C=CCN6CC[C@]43[C@@H]65)C2)C1 [Vinblastine, vinblastine, reference compound]",IC50,"[2]; Homo sapiens, MES-SA",1.1 ± 0.3 nM
same,Degree of resistance (CEM/VLB100),CEM/VLB100 cells (MDR+),255 ± 127
same,IC50,CEM/VM-1-5 cells (MDR+); [5],1.3 ± 0.9 nM
same,Degree of resistance (CEM/VM-1-5),CEM/VM-1-5 cells (MDR+),1.2 ± 0.07
same,IC50,"CCRF-CEM (CEM) cells; Homo sapiens, CCRF-CEM, read-out: IC50 CEM (HTL), CEM human T-lymphoblastoid, MTT",1 ± 0.8 nM
same,IC50,"[3]; Homo sapiens, MES-SA/Dx5, read-out: IC50 MESSA/Dx5 (MDR + Hs)",43 ± 12 nM
same,Degree of resistance (MESSA/Dx5),[3],38.5 ± 0.7
CC1=CC(=O)[C@@H](OC(CBr)OC2CCCCC2)[C@]2(C)C3[C@]45CO[C@@]3(O)[C@H](O)[C@H](C)C4C(OC(=O)CC(O)(C(C)C)C(C)C)C(=O)O[C@@H]5C[C@@H]12 (stereo partly drawn) [ART 473],IC50,[1]; [4],12.6 ± 0.9 nM
C=CCCCCOC(=O)O[C@@H]1C(=O)C=C(C)[C@@H]2C[C@H]3OC(=O)C(OC(=O)CC(O)(C(C)C)C(C)C)C4[C@@H](C)[C@@H](O)[C@]5(O)OC[C@@]43C5[C@@]12C (stereo partly drawn) [ART 448],IC50,[1]; [4],5 ± 0.7 nM
